Test results as given in patent US10696615B2, “Prenylated hydroxystilbenes” (The University of Sydney, priority 2011, dated 2020).

Experiments:
Assay type in all cases: cell-based, human
[1] = test system: LOX IMVI; assay: NCI in vitro cancer screen, Melanoma; details: unit not printed (M)
[2] = test system: SK-MEL-2; assay: NCI in vitro cancer screen, Melanoma; details: SK-MEL-2, unit not printed (M)
[3] = test system: OVCAR-4; assay: NCI in vitro cancer screen, Ovarian Cancer; details: OVCAR-4, unit not printed (M)
[4] = test system: HCC-2998; assay: NCI in vitro cancer screen, Colon Cancer; details: HCC-2998, unit not printed (M)
[5] = test system: CAKI-1; assay: NCI in vitro cancer screen, Renal Cancer; details: CAKI-1, unit not printed (M)
[6] = test system: SK-MEL-5; assay: NCI in vitro cancer screen, Melanoma; details: SK-MEL-5, unit not printed (M)
[7] = test system: SK-MEL-28; assay: NCI in vitro cancer screen, Melanoma; details: SK-MEL-28, unit not printed (M)
[8] = test system: ACHN; assay: NCI in vitro cancer screen, Renal Cancer; details: unit not printed (M)
[9] = test system: NCI-H23; assay: NCI in vitro cancer screen, Non-Small Cell Lung Cancer; details: NCI-H23, unit not printed (M)
[10] = test system: HOP-92; assay: as above; details: HOP (second HOP line), unit not printed (M)
[11] = test system: DU-145; assay: NCI in vitro cancer screen, Prostate Cancer; details: DU-145, unit not printed (M)
[12] = test system: OVCAR-5; assay: NCI in vitro cancer screen, Ovarian Cancer; details: OVCAR-5, unit not printed (M)
[13] = test system: KM12; assay: NCI in vitro cancer screen, Colon Cancer; details: KM12, unit not printed (M)
[14] = test system: OVCAR-8; assay: NCI in vitro cancer screen, Ovarian Cancer; details: OVCAR-8, unit not printed (M)
[15] = test system: COLO 205; assay: NCI in vitro cancer screen, Colon Cancer; details: COLO, unit not printed (M)
[16] = test system: HCT-15; assay: NCI in vitro cancer screen, Colon Cancer; details: HCT-15, unit not printed (M)
[17] = test system: UACC-62; assay: NCI in vitro cancer screen, Melanoma; details: UACC-62, unit not printed (M)
[18] = test system: MOLT-4; assay: NCI in vitro cancer screen, Leukemia; details: MOLT, unit not printed (M)
[19] = test system: U251; assay: NCI in vitro cancer screen, CNS Cancer; details: U251, unit not printed (M)
[20] = test system: HCT-116; assay: NCI in vitro cancer screen, Colon Cancer; details: HCT-116, unit not printed (M)
[21] = test system: MALME-3M; assay: NCI in vitro cancer screen, Melanoma; details: MALME-3M, unit not printed (M)
[22] = test system: M14; assay: NCI in vitro cancer screen, Melanoma; details: M14, unit not printed (M)
[23] = test system: MDA-MB-231 (MDA-MB-231/ATCC); assay: NCI in vitro cancer screen, Breast Cancer; details: MDA-MB-231/ATCC, unit not printed (M)
[24] = test system: NCI-H460; assay: NCI in vitro cancer screen, Non-Small Cell Lung Cancer; details: NCI-H460, unit not printed (M)
[25] = test system: NCI-H522; assay: as above; details: NCI-H522, unit not printed (M)
[26] = test system: PC-3; assay: NCI in vitro cancer screen, Prostate Cancer; details: PC-3, unit not printed (M)
[27] = test system: SK-OV-3; assay: NCI in vitro cancer screen, Ovarian Cancer; details: SK-OV-3, unit not printed (M)
[28] = test system: ADR-RES (NCI/ADR-RES); assay: NCI in vitro cancer screen, Ovarian Cancer; details: NCI/ADR-RES, unit not printed (M)
[29] = test system: SNB-19; assay: NCI in vitro cancer screen, CNS Cancer; details: SNB-19, unit not printed (M)
[30] = Homo sapiens, read-out: LC50 (the source's name)

## COc1cc(/C=C/c2cc(O)cc(O)c2CC=C(C)C)ccc1O [USYDS10, (E)-2-(3-methyl-2-buten-1-yl)-3,4′,5-trihydroxy-3′-methoxystilbene]
[1]; Homo sapiens
  GI50: 0.572 µM
[1]; [30]
  CC50: 80 µM
[1]
  TGI: 1.93E−5
[2]; Homo sapiens
  GI50: 0.576 µM
  LC50: > 100 µM
[2]
  TGI: 3.26E−5
[3]; Homo sapiens
  GI50: 1.03 µM
[3]; [30]
  CC50: 57.7 µM
[3]
  TGI: 1.82E−5
[4]
  TGI: 1.19E−5
[4]; Homo sapiens
  GI50: 1.81 µM
[4]; [30]
  CC50: 39.8 µM
[5]
  TGI: 6.68E−5
[5]; Homo sapiens
  GI50: 0.539 µM
[5]; [30]
  CC50: > 100 µM
[6]; Homo sapiens
  GI50: 0.291 µM
[6]; [30]
  CC50: 36 µM
[6]
  TGI: 1.27E−5
[7]; Homo sapiens
  GI50: 0.572 µM
  LC50: 43 µM
[7]
  TGI: 1.69E−5
[8]; Homo sapiens
  GI50: 0.903 µM
[8]; [30]
  CC50: > 100 µM
[8]
  TGI: 3.79E−5
[9]; Homo sapiens
  GI50: 0.38 µM
  LC50: 78.3 µM
[9]
  TGI: 1.52E−5
[10]
  TGI: 2.63E−5
[10]; Homo sapiens, HOP-92
  GI50: 0.398 µM
[10]; Homo sapiens, HOP-92, read-out: LC50 (the source's name)
  CC50: 93.2 µM
[11]
  TGI: 2.05E−5
[11]; Homo sapiens
  GI50: 0.442 µM
[11]; [30]
  CC50: > 100 µM
[12]; Homo sapiens
  GI50: 8.92 µM
[12]; [30]
  CC50: 83.1 µM
[12]
  TGI: 2.80E−5
[13]; Homo sapiens
  GI50: 0.497 µM
[13]; [30]
  CC50: 85.8 µM
[13]
  TGI: 1.53E−5
[14]; Homo sapiens
  GI50: 0.467 µM
[14]; [30]
  CC50: > 100 µM
[14]
  TGI: 6.50E−5
[15]
  TGI: 2.97E−5
[15]; Homo sapiens, COLO 205
  GI50: 15.3 µM
[15]; Homo sapiens, COLO 205, read-out: LC50 (the source's name)
  CC50: 57.7 µM
[16]
  TGI: 2.09E−5
[16]; Homo sapiens
  GI50: 0.498 µM
[16]; [30]
  CC50: > 100 µM
[17]; Homo sapiens
  GI50: 0.521 µM
[17]; [30]
  CC50: 42.8 µM
[17]
  TGI: 1.55E−5
[18]; Homo sapiens, MOLT-4
  GI50: 0.596 µM
[18]; Homo sapiens, MOLT-4, read-out: LC50 (the source's name)
  CC50: > 100 µM
[18]
  TGI: 1.99E−5
[19]; Homo sapiens, U-251
  GI50: 0.419 µM
[19]; Homo sapiens, U-251, read-out: LC50 (the source's name)
  CC50: 78.8 µM
[19]
  TGI: 1.62E−5
[20]
  TGI: 1.30E−5
[20]; Homo sapiens
  GI50: 0.48 µM
  LC50 (concentration killing 50% of cells): 42.7 µM
[21]; Homo sapiens
  GI50: 18.7 µM
[21]; [30]
  CC50: 92.9 µM
[21]
  TGI: 4.17E−5
[22]; Homo sapiens
  GI50: 0.284 µM
[22]; [30]
  CC50: 41.6 µM
[22]
  TGI: 1.42E−5
[23]; Homo sapiens
  GI50: 0.642 µM
[23]; [30]
  CC50: > 100 µM
[23]
  TGI: 3.20E−5
[24]; Homo sapiens
  GI50: 0.381 µM
[24]; [30]
  CC50: 66.1 µM
[24]
  TGI: 1.29E−5
[25]; Homo sapiens
  GI50: 0.349 µM
[25]; [30]
  CC50: 42.2 µM
[25]
  TGI: 1.46E−5
[26]; Homo sapiens
  GI50: 2.27 µM
[26]; [30]
  CC50: > 100 µM
[26]
  TGI: 3.12E−5
[27]; Homo sapiens
  GI50: 0.422 µM
[27]; [30]
  CC50: 34.2 µM
[27]
  TGI: 1.14E−5
[28]; Homo sapiens
  GI50: 0.183 µM
[28]; [30]
  CC50: > 100 µM
[28]
  TGI: 8.04E−7
[29]; Homo sapiens
  GI50: 0.613 µM
[29]; [30]
  CC50: > 100 µM
[29]
  TGI: 2.28E−5
